In patent US6689773B2, “Uracil substituted phenyl sulfamoyl carboxamides” (BASF Aktiengesellschaft, priority 2000, dated 2004):

Tests used:
Assay type in all cases: in vivo
[1] = system: TRZAW, Winter wheat, Tritium Aestivum, L. (Winter); test: Postemergence herbicidal evaluation (Example 147); details: rating scale 0-9, two to three weeks after treatment
How it was run: (§1)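 Seedlings grown about two weeks, then sprayed (nozzle at 40 psi) with compound in 80/20 acetone/water plus 1.0% methylated seed oil at about 0.016 to 0.032 kg/ha. Kept in greenhouse; visual injury rated 0-9 versus untreated control two to three weeks after treatment; replicate tests averaged.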

[2] = system: ALOMY, Blackgrass, Alopecurus myosuroides; test: Postemergence herbicidal evaluation (Example 147); details: rating scale 0-9, two to three weeks after treatment
How it was run: as §1

[3] = system: GLXMA, Soybean, Glycine max, (L.) Merr.; test: Postemergence herbicidal evaluation (Example 147); details: rating scale 0-9, two to three weeks after treatment
How it was run: as §1

[4] = system: CHEAL, Lambsquarters, Chenopodium album, L. Common; test: Postemergence herbicidal evaluation (Example 147); details: rating scale 0-9, two to three weeks after treatment
How it was run: as §1

[5] = system: ZEAMX, Field corn, Zea mays L.; test: Postemergence herbicidal evaluation (Example 147); details: rating scale 0-9, two to three weeks after treatment
How it was run: as §1

[6] = system: XANST, Cocklebur, Xanthium strumariam; test: Postemergence herbicidal evaluation (Example 147); details: rating scale 0-9, two to three weeks after treatment
How it was run: as §1

[7] = system: IPOHE, Morningglory, Ivyleaf, Ipomoea hederacea, (L)Jacq.; test: Postemergence herbicidal evaluation (Example 147); details: rating scale 0-9, two to three weeks after treatment
How it was run: as §1

[8] = system: SETVI, Green foxtail, Setaria viridis, (L.)Beau; test: Postemergence herbicidal evaluation (Example 147); details: rating scale 0-9, two to three weeks after treatment
How it was run: as §1

[9] = system: AMBEL, Ragweed, Common, Ambrosia artemiisifolia, L.; test: Postemergence herbicidal evaluation (Example 147); details: rating scale 0-9, two to three weeks after treatment
How it was run: as §1

[10] = system: ECHCG, Barnyardgrass, Echinochloa crusgalli, (L.)Beau; test: Postemergence herbicidal evaluation (Example 147); details: rating scale 0-9, two to three weeks after treatment
How it was run: as §1

[11] = system: DIGSA, Crabgrass, (Hairy) L, Digitaria sanguinalis, (L)Scop; test: Postemergence herbicidal evaluation (Example 147); details: rating scale 0-9, two to three weeks after treatment
How it was run: as §1

[12] = system: ABUTH, Velvetleaf, Abutilon theophrasti, Medic.; test: Postemergence herbicidal evaluation (Example 147); details: rating scale 0-9, two to three weeks after treatment
How it was run: as §1

[13] = system: TRZAW, Winter wheat, Tritium Aestivum, L. (Winter); test: Preemergence herbicidal evaluation (Example 148); details: rating scale 0-9, two to four weeks after treatment
How it was run: (§2)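 Scores reflect visual assessment of plant stand, vigour, malformation, size and chlorosis relative to an untreated control, made two to four weeks after a preemergence spray delivering about 0.125–0.250 kg/ha.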

[14] = system: ALOMY, Blackgrass, Alopecurus myosuroides; test: Preemergence herbicidal evaluation (Example 148); details: rating scale 0-9, two to four weeks after treatment
How it was run: as §2

[15] = system: GLXMA, Soybean, Glycine max, (L.) Merr.; test: Preemergence herbicidal evaluation (Example 148); details: rating scale 0-9, two to four weeks after treatment
How it was run: as §2

[16] = system: CHEAL, Lambsquarters, Chenopodium album, L. Common; test: Preemergence herbicidal evaluation (Example 148); details: rating scale 0-9, two to four weeks after treatment
How it was run: as §2

[17] = system: ZEAMX, Field corn, Zea mays L.; test: Preemergence herbicidal evaluation (Example 148); details: rating scale 0-9, two to four weeks after treatment
How it was run: as §2

[18] = system: XANST, Cocklebur, Xanthium strumariam; test: Preemergence herbicidal evaluation (Example 148); details: rating scale 0-9, two to four weeks after treatment
How it was run: as §2

[19] = system: IPOHE, Morningglory, Ivyleaf, Ipomoea hederacea, (L)Jacq.; test: Preemergence herbicidal evaluation (Example 148); details: rating scale 0-9, two to four weeks after treatment
How it was run: as §2

[20] = system: SETVI, Green foxtail, Setaria viridis, (L.)Beau; test: Preemergence herbicidal evaluation (Example 148); details: rating scale 0-9, two to four weeks after treatment
How it was run: as §2

[21] = system: AMBEL, Ragweed, Common, Ambrosia artemiisifolia, L.; test: Preemergence herbicidal evaluation (Example 148); details: rating scale 0-9, two to four weeks after treatment
How it was run: as §2

[22] = system: ECHCG, Barnyardgrass, Echinochloa crusgalli, (L.)Beau; test: Preemergence herbicidal evaluation (Example 148); details: rating scale 0-9, two to four weeks after treatment
How it was run: as §2

[23] = system: DIGSA, Crabgrass, (Hairy) L, Digitaria sanguinalis, (L)Scop; test: Preemergence herbicidal evaluation (Example 148); details: rating scale 0-9, two to four weeks after treatment
How it was run: as §2

[24] = system: ABUTH, Velvetleaf, Abutilon theophrasti, Medic.; test: Preemergence herbicidal evaluation (Example 148); details: rating scale 0-9, two to four weeks after treatment
How it was run: as §2

CCC(C)N(C)S(=O)(=O)NC(=O)c1cc(-n2c(=O)cc(C(F)(F)F)n(C)c2=O)c(F)cc1Cl (stereo not drawn) [Example 69]
Postemergence herbicidal rating TRZAW ([1]; rate 0.016 kg/ha): 5.0 | Postemergence herbicidal rating TRZAW ([1]; rate 0.032 kg/ha): 6.5 | Postemergence herbicidal rating ALMOY ([2]; rate 0.016 kg/ha): 1.0 | Postemergence herbicidal rating ALMOY ([2]; rate 0.032 kg/ha): 2.0 | Postemergence herbicidal rating GLXMA ([3]; rate 0.016 kg/ha): 8.0 | Postemergence herbicidal rating GLXMA ([3]; rate 0.032 kg/ha): 8.0 | Postemergence herbicidal rating CHEAL ([4]; rate 0.016 kg/ha): 8.0 | Postemergence herbicidal rating CHEAL ([4]; rate 0.032 kg/ha): 8.0 | Postemergence herbicidal rating ZEAMX ([5]; rate 0.016 kg/ha): 7.0 | Postemergence herbicidal rating ZEAMX ([5]; rate 0.032 kg/ha): 7.5 | Postemergence herbicidal rating XANST ([6]; rate 0.016 kg/ha): 9.0 | Postemergence herbicidal rating XANST ([6]; rate 0.032 kg/ha): 9.0 | Postemergence herbicidal rating IPOHE ([7]; rate 0.016 kg/ha): 9.0 | Postemergence herbicidal rating IPOHE ([7]; rate 0.032 kg/ha): 9.0 | Postemergence herbicidal rating SETVI ([8]; rate 0.016 kg/ha): 5.0 | Postemergence herbicidal rating SETVI ([8]; rate 0.032 kg/ha): 6.0 | Postemergence herbicidal rating AMBEL ([9]; rate 0.016 kg/ha): 9.0 | Postemergence herbicidal rating AMBEL ([9]; rate 0.032 kg/ha): 9.0 | Postemergence herbicidal rating ECHCG ([10]; rate 0.016 kg/ha): 5.0 | Postemergence herbicidal rating ECHCG ([10]; rate 0.032 kg/ha): 7.0 | Postemergence herbicidal rating DIGSA ([11]; rate 0.016 kg/ha): 4.0 | Postemergence herbicidal rating DIGSA ([11]; rate 0.032 kg/ha): 6.0 | Postemergence herbicidal rating ABUTH ([12]; rate 0.016 kg/ha): 9.0 | Postemergence herbicidal rating ABUTH ([12]; rate 0.032 kg/ha): 9.0 | Preemergence herbicidal rating TRZAW ([13]; rate 0.125 kg/ha): 0.0 | Preemergence herbicidal rating TRZAW ([13]; rate 0.25 kg/ha): 0.0 | Preemergence herbicidal rating ALMOY ([14]; rate 0.125 kg/ha): 0.0 | Preemergence herbicidal rating ALMOY ([14]; rate 0.25 kg/ha): 0.0 | Preemergence herbicidal rating GLXMA ([15]; rate 0.125 kg/ha): 0.0 | Preemergence herbicidal rating GLXMA ([15]; rate 0.25 kg/ha): 3.0 | Preemergence herbicidal rating CHEAL ([16]; rate 0.125 kg/ha): 9.0 | Preemergence herbicidal rating CHEAL ([16]; rate 0.25 kg/ha): 9.0 | Preemergence herbicidal rating ZEAMX ([17]; rate 0.125 kg/ha): 2.0 | Preemergence herbicidal rating ZEAMX ([17]; rate 0.25 kg/ha): 3.0 | Preemergence herbicidal rating XANST ([18]; rate 0.125 kg/ha): 3.0 | Preemergence herbicidal rating XANST ([18]; rate 0.25 kg/ha): 4.0 | Preemergence herbicidal rating IPOHE ([19]; rate 0.125 kg/ha): 9.0 | Preemergence herbicidal rating IPOHE ([19]; rate 0.25 kg/ha): 9.0 | Preemergence herbicidal rating SETVI ([20]; rate 0.125 kg/ha): 0.0 | Preemergence herbicidal rating SETVI ([20]; rate 0.25 kg/ha): 1.0 | Preemergence herbicidal rating AMBEL ([21]; rate 0.125 kg/ha): 8.0 | Preemergence herbicidal rating AMBEL ([21]; rate 0.25 kg/ha): 9.0 | Preemergence herbicidal rating ECHCG ([22]; rate 0.125 kg/ha): 2.0 | Preemergence herbicidal rating ECHCG ([22]; rate 0.25 kg/ha): 3.0 | Preemergence herbicidal rating DIGSA ([23]; rate 0.125 kg/ha): 3.0 | Preemergence herbicidal rating DIGSA ([23]; rate 0.25 kg/ha): 3.0 | Preemergence herbicidal rating ABUTH ([24]; rate 0.125 kg/ha): 9.0 | Preemergence herbicidal rating ABUTH ([24]; rate 0.25 kg/ha): 9.0

CC(C)N(C)S(=O)(=O)NC(=O)c1cc(-n2c(=O)cc(C(F)(F)F)n(N)c2=O)c(F)cc1Cl [Example 76]
Postemergence herbicidal rating TRZAW ([1]; rate 0.016 kg/ha): 5.0 | Postemergence herbicidal rating TRZAW ([1]; rate 0.032 kg/ha): 6.0 | Postemergence herbicidal rating ALMOY ([2]; rate 0.016 kg/ha): 1.0 | Postemergence herbicidal rating ALMOY ([2]; rate 0.032 kg/ha): 1.0 | Postemergence herbicidal rating GLXMA ([3]; rate 0.016 kg/ha): 7.5 | Postemergence herbicidal rating GLXMA ([3]; rate 0.032 kg/ha): 7.5 | Postemergence herbicidal rating CHEAL ([4]; rate 0.016 kg/ha): 6.0 | Postemergence herbicidal rating CHEAL ([4]; rate 0.032 kg/ha): 6.0 | Postemergence herbicidal rating ZEAMX ([5]; rate 0.016 kg/ha): 5.5 | Postemergence herbicidal rating ZEAMX ([5]; rate 0.032 kg/ha): 6.5 | Postemergence herbicidal rating XANST ([6]; rate 0.016 kg/ha): 9.0 | Postemergence herbicidal rating XANST ([6]; rate 0.032 kg/ha): 9.0 | Postemergence herbicidal rating IPOHE ([7]; rate 0.016 kg/ha): 9.0 | Postemergence herbicidal rating IPOHE ([7]; rate 0.032 kg/ha): 9.0 | Postemergence herbicidal rating SETVI ([8]; rate 0.016 kg/ha): 5.0 | Postemergence herbicidal rating SETVI ([8]; rate 0.032 kg/ha): 6.0 | Postemergence herbicidal rating AMBEL ([9]; rate 0.016 kg/ha): 8.0 | Postemergence herbicidal rating AMBEL ([9]; rate 0.032 kg/ha): 8.0 | Postemergence herbicidal rating ECHCG ([10]; rate 0.016 kg/ha): 5.0 | Postemergence herbicidal rating ECHCG ([10]; rate 0.032 kg/ha): 6.0 | Postemergence herbicidal rating DIGSA ([11]; rate 0.016 kg/ha): 3.0 | Postemergence herbicidal rating DIGSA ([11]; rate 0.032 kg/ha): 4.0 | Postemergence herbicidal rating ABUTH ([12]; rate 0.016 kg/ha): 9.0 | Postemergence herbicidal rating ABUTH ([12]; rate 0.032 kg/ha): 9.0 | Preemergence herbicidal rating TRZAW ([13]; rate 0.125 kg/ha): 0.0 | Preemergence herbicidal rating TRZAW ([13]; rate 0.25 kg/ha): 1.0 | Preemergence herbicidal rating ALMOY ([14]; rate 0.125 kg/ha): 0.0 | Preemergence herbicidal rating ALMOY ([14]; rate 0.25 kg/ha): 2.0 | Preemergence herbicidal rating GLXMA ([15]; rate 0.125 kg/ha): 1.0 | Preemergence herbicidal rating GLXMA ([15]; rate 0.25 kg/ha): 3.0 | Preemergence herbicidal rating CHEAL ([16]; rate 0.125 kg/ha): 8.0 | Preemergence herbicidal rating CHEAL ([16]; rate 0.25 kg/ha): 9.0 | Preemergence herbicidal rating ZEAMX ([17]; rate 0.125 kg/ha): 1.0 | Preemergence herbicidal rating ZEAMX ([17]; rate 0.25 kg/ha): 1.0 | Preemergence herbicidal rating XANST ([18]; rate 0.125 kg/ha): 3.0 | Preemergence herbicidal rating XANST ([18]; rate 0.25 kg/ha): 5.0 | Preemergence herbicidal rating IPOHE ([19]; rate 0.125 kg/ha): 5.0 | Preemergence herbicidal rating IPOHE ([19]; rate 0.25 kg/ha): 9.0 | Preemergence herbicidal rating SETVI ([20]; rate 0.125 kg/ha): 1.0 | Preemergence herbicidal rating SETVI ([20]; rate 0.25 kg/ha): 2.0 | Preemergence herbicidal rating AMBEL ([21]; rate 0.125 kg/ha): 8.0 | Preemergence herbicidal rating AMBEL ([21]; rate 0.25 kg/ha): 9.0 | Preemergence herbicidal rating ECHCG ([22]; rate 0.125 kg/ha): 1.0 | Preemergence herbicidal rating ECHCG ([22]; rate 0.25 kg/ha): 2.0 | Preemergence herbicidal rating DIGSA ([23]; rate 0.125 kg/ha): 2.0 | Preemergence herbicidal rating DIGSA ([23]; rate 0.25 kg/ha): 3.0 | Preemergence herbicidal rating ABUTH ([24]; rate 0.125 kg/ha): 9.0 | Preemergence herbicidal rating ABUTH ([24]; rate 0.25 kg/ha): 9.0
